Reference: patent US20250275540A1, “USE OF PROTOPORPHYRINOGEN OXIDASE” (BEIJING DABEINONG BIOTECHNOLOGY CO., LTD., priority 2022, published 2025)

Tested on: transgenic soybean plants
Assay: Detection of the herbicide tolerance of the transgenic soybean plants
Format: in vivo
Details: for The grade of pesticide damage/plant: 0 / The grade of pesticide damage/plant: 1 / The grade of pesticide damage/plant: 2 / The grade of pesticide damage/plant: 3: 7 DAT
[1] = genotype Control vector, 360 g ai/ha
[2] = genotype Control vector, 720 g ai/ha
[3] = genotype PPO-AP-01, 360 g ai/ha
[4] = genotype PPO-AP-01, 720 g ai/ha
[5] = genotype PPO-EC-01, 360 g ai/ha
[6] = genotype PPO-EC-01, 720 g ai/ha

**Q.** How did the “The grade of pesticide damage/plant: 0” value (genotype CK, 360 g ai/ha) turn out when CCOc1cc(Oc2ccc(C(F)(F)F)cc2Cl)ccc1[N+](=O)[O-] [oxyfluorfen, 2-chloro-1-(3-ethoxy-4-nitrophenoxy)-4-trifluoromethylbenzene] was run?
**A.** Its value is 0 plant.

**Q.** And the “The grade of pesticide damage/plant: 1” value (genotype CK, 360 g ai/ha)?
**A.** The value was 0 plant.

**Q.** And the “The grade of pesticide damage/plant: 2” value (genotype CK, 360 g ai/ha)?
**A.** The value was 0 plant.

**Q.** What about the “The grade of pesticide damage/plant: 3” value (genotype CK, 360 g ai/ha) of the same molecule?
**A.** Its value is 16 plant.

**Q.** What about the “The grade of pesticide damage/plant: 0” value (genotype CK, 720 g ai/ha) of the same molecule?
**A.** The value was 0 plant.

**Q.** And the “The grade of pesticide damage/plant: 1” value (genotype CK, 720 g ai/ha)?
**A.** The value was 0 plant.

**Q.** What about the “The grade of pesticide damage/plant: 2” value (genotype CK, 720 g ai/ha) of the same molecule?
**A.** The value was 0 plant.

**Q.** What about the “The grade of pesticide damage/plant: 3” value (genotype CK, 720 g ai/ha) of the same molecule?
**A.** Its value is 16 plant.

**Q.** And the “The grade of pesticide damage/plant: 0” value [1]?
**A.** The value was 0 plant.

**Q.** What about the “The grade of pesticide damage/plant: 1” value [1] of the same molecule?
**A.** Its value is 0 plant.

**Q.** And the “The grade of pesticide damage/plant: 2” value [1]?
**A.** Its value is 0 plant.

**Q.** What about the “The grade of pesticide damage/plant: 3” value [1] of the same molecule?
**A.** The value was 16 plant.

**Q.** And the “The grade of pesticide damage/plant: 0” value [2]?
**A.** Its value is 0 plant.

**Q.** What about the “The grade of pesticide damage/plant: 1” value [2] of the same molecule?
**A.** Its value is 0 plant.

**Q.** And the “The grade of pesticide damage/plant: 2” value [2]?
**A.** Its value is 0 plant.

**Q.** What about the “The grade of pesticide damage/plant: 3” value [2] of the same molecule?
**A.** Its value is 16 plant.

**Q.** And the “The grade of pesticide damage/plant: 0” value [3]?
**A.** Its value is 0 plant.

**Q.** And the “The grade of pesticide damage/plant: 1” value [3]?
**A.** Its value is 0 plant.

**Q.** And the “The grade of pesticide damage/plant: 2” value [3]?
**A.** The value was 8 plant.

**Q.** And the “The grade of pesticide damage/plant: 3” value [3]?
**A.** Its value is 8 plant.

**Q.** And the “The grade of pesticide damage/plant: 0” value [4]?
**A.** Its value is 0 plant.

**Q.** And the “The grade of pesticide damage/plant: 1” value [4]?
**A.** The value was 0 plant.

**Q.** What about the “The grade of pesticide damage/plant: 2” value [4] of the same molecule?
**A.** The value was 0 plant.

**Q.** And the “The grade of pesticide damage/plant: 3” value [4]?
**A.** Its value is 16 plant.

**Q.** What about the “tolerance to the herbicide (in words)” value (genotype PPO-AP-01, four-fold field concentration) of the same molecule?
**A.** The value was “no tolerance”.

**Q.** What about the “share of the plants that exhibited no tolerance” value (genotype PPO-AP-01, two-fold field concentration) of the same molecule?
**A.** Its value is 50%.

**Q.** And the “The grade of pesticide damage/plant: 0” value [5]?
**A.** The value was 16 plant.

**Q.** What about the “The grade of pesticide damage/plant: 1” value [5] of the same molecule?
**A.** The value was 0 plant.

**Q.** What about the “The grade of pesticide damage/plant: 2” value [5] of the same molecule?
**A.** The value was 0 plant.

**Q.** And the “The grade of pesticide damage/plant: 3” value [5]?
**A.** Its value is 0 plant.

**Q.** What about the “The grade of pesticide damage/plant: 0” value [6] of the same molecule?
**A.** Its value is 13 plant.

**Q.** What about the “The grade of pesticide damage/plant: 1” value [6] of the same molecule?
**A.** The value was 3 plant.

**Q.** What about the “The grade of pesticide damage/plant: 2” value [6] of the same molecule?
**A.** The value was 0 plant.

**Q.** And the “The grade of pesticide damage/plant: 3” value [6]?
**A.** The value was 0 plant.

**Q.** What about the “The grade of pesticide damage/plant: 0” value (genotype PPOA-01, 360 g ai/ha) of the same molecule?
**A.** The value was 16 plant.

**Q.** What about the “The grade of pesticide damage/plant: 1” value (genotype PPOA-01, 360 g ai/ha) of the same molecule?
**A.** Its value is 0 plant.

**Q.** And the “The grade of pesticide damage/plant: 2” value (genotype PPOA-01, 360 g ai/ha)?
**A.** Its value is 0 plant.

**Q.** What about the “The grade of pesticide damage/plant: 3” value (genotype PPOA-01, 360 g ai/ha) of the same molecule?
**A.** The value was 0 plant.

**Q.** What about the “The grade of pesticide damage/plant: 0” value (genotype PPOA-01, 720 g ai/ha) of the same molecule?
**A.** Its value is 15 plant.

**Q.** And the “The grade of pesticide damage/plant: 1” value (genotype PPOA-01, 720 g ai/ha)?
**A.** Its value is 1 plant.

**Q.** What about the “The grade of pesticide damage/plant: 2” value (genotype PPOA-01, 720 g ai/ha) of the same molecule?
**A.** The value was 0 plant.

**Q.** What about the “The grade of pesticide damage/plant: 3” value (genotype PPOA-01, 720 g ai/ha) of the same molecule?
**A.** The value was 0 plant.

**Q.** And the “The grade of pesticide damage/plant: 0” value (genotype PPOB-01, 360 g ai/ha)?
**A.** The value was 16 plant.

**Q.** What about the “The grade of pesticide damage/plant: 1” value (genotype PPOB-01, 360 g ai/ha) of the same molecule?
**A.** The value was 0 plant.

**Q.** And the “The grade of pesticide damage/plant: 2” value (genotype PPOB-01, 360 g ai/ha)?
**A.** The value was 0 plant.

**Q.** And the “The grade of pesticide damage/plant: 3” value (genotype PPOB-01, 360 g ai/ha)?
**A.** Its value is 0 plant.

**Q.** What about the “The grade of pesticide damage/plant: 0” value (genotype PPOB-01, 720 g ai/ha) of the same molecule?
**A.** Its value is 16 plant.

**Q.** And the “The grade of pesticide damage/plant: 1” value (genotype PPOB-01, 720 g ai/ha)?
**A.** Its value is 0 plant.

**Q.** And the “The grade of pesticide damage/plant: 2” value (genotype PPOB-01, 720 g ai/ha)?
**A.** The value was 0 plant.

**Q.** What about the “The grade of pesticide damage/plant: 3” value (genotype PPOB-01, 720 g ai/ha) of the same molecule?
**A.** The value was 0 plant.

**Q.** And the “The grade of pesticide damage/plant: 0” value (genotype PPOC-01, 360 g ai/ha)?
**A.** The value was 16 plant.

**Q.** And the “The grade of pesticide damage/plant: 1” value (genotype PPOC-01, 360 g ai/ha)?
**A.** The value was 0 plant.

**Q.** And the “The grade of pesticide damage/plant: 2” value (genotype PPOC-01, 360 g ai/ha)?
**A.** The value was 0 plant.

**Q.** And the “The grade of pesticide damage/plant: 3” value (genotype PPOC-01, 360 g ai/ha)?
**A.** The value was 0 plant.

**Q.** And the “The grade of pesticide damage/plant: 0” value (genotype PPOC-01, 720 g ai/ha)?
**A.** Its value is 16 plant.

**Q.** And the “The grade of pesticide damage/plant: 1” value (genotype PPOC-01, 720 g ai/ha)?
**A.** The value was 0 plant.

**Q.** What about the “The grade of pesticide damage/plant: 2” value (genotype PPOC-01, 720 g ai/ha) of the same molecule?
**A.** The value was 0 plant.

**Q.** What about the “The grade of pesticide damage/plant: 3” value (genotype PPOC-01, 720 g ai/ha) of the same molecule?
**A.** The value was 0 plant.

**Q.** What about the “The grade of pesticide damage/plant: 0” value (genotype PPOD-01, 360 g ai/ha) of the same molecule?
**A.** The value was 16 plant.

**Q.** And the “The grade of pesticide damage/plant: 1” value (genotype PPOD-01, 360 g ai/ha)?
**A.** Its value is 0 plant.

**Q.** What about the “The grade of pesticide damage/plant: 2” value (genotype PPOD-01, 360 g ai/ha) of the same molecule?
**A.** Its value is 0 plant.

**Q.** What about the “The grade of pesticide damage/plant: 3” value (genotype PPOD-01, 360 g ai/ha) of the same molecule?
**A.** The value was 0 plant.

**Q.** And the “The grade of pesticide damage/plant: 0” value (genotype PPOD-01, 720 g ai/ha)?
**A.** The value was 16 plant.

**Q.** And the “The grade of pesticide damage/plant: 1” value (genotype PPOD-01, 720 g ai/ha)?
**A.** The value was 0 plant.

**Q.** And the “The grade of pesticide damage/plant: 2” value (genotype PPOD-01, 720 g ai/ha)?
**A.** Its value is 0 plant.

**Q.** What about the “The grade of pesticide damage/plant: 3” value (genotype PPOD-01, 720 g ai/ha) of the same molecule?
**A.** The value was 0 plant.

**Q.** What about the “The grade of pesticide damage/plant: 0” value (genotype PPOE-01, 360 g ai/ha) of the same molecule?
**A.** Its value is 16 plant.

**Q.** What about the “The grade of pesticide damage/plant: 1” value (genotype PPOE-01, 360 g ai/ha) of the same molecule?
**A.** The value was 0 plant.

**Q.** And the “The grade of pesticide damage/plant: 2” value (genotype PPOE-01, 360 g ai/ha)?
**A.** Its value is 0 plant.

**Q.** And the “The grade of pesticide damage/plant: 3” value (genotype PPOE-01, 360 g ai/ha)?
**A.** The value was 0 plant.

**Q.** And the “The grade of pesticide damage/plant: 0” value (genotype PPOE-01, 720 g ai/ha)?
**A.** Its value is 14 plant.

**Q.** What about the “The grade of pesticide damage/plant: 1” value (genotype PPOE-01, 720 g ai/ha) of the same molecule?
**A.** Its value is 2 plant.

**Q.** And the “The grade of pesticide damage/plant: 2” value (genotype PPOE-01, 720 g ai/ha)?
**A.** Its value is 0 plant.

**Q.** And the “The grade of pesticide damage/plant: 3” value (genotype PPOE-01, 720 g ai/ha)?
**A.** The value was 0 plant.

**Q.** What about the “The grade of pesticide damage/plant: 0” value (genotype PPOF-01, 360 g ai/ha) of the same molecule?
**A.** Its value is 16 plant.

**Q.** What about the “The grade of pesticide damage/plant: 1” value (genotype PPOF-01, 360 g ai/ha) of the same molecule?
**A.** Its value is 0 plant.

**Q.** And the “The grade of pesticide damage/plant: 2” value (genotype PPOF-01, 360 g ai/ha)?
**A.** Its value is 0 plant.

**Q.** And the “The grade of pesticide damage/plant: 3” value (genotype PPOF-01, 360 g ai/ha)?
**A.** Its value is 0 plant.

**Q.** And the “The grade of pesticide damage/plant: 0” value (genotype PPOF-01, 720 g ai/ha)?
**A.** The value was 16 plant.

**Q.** And the “The grade of pesticide damage/plant: 1” value (genotype PPOF-01, 720 g ai/ha)?
**A.** The value was 0 plant.

**Q.** What about the “The grade of pesticide damage/plant: 2” value (genotype PPOF-01, 720 g ai/ha) of the same molecule?
**A.** The value was 0 plant.

**Q.** And the “The grade of pesticide damage/plant: 3” value (genotype PPOF-01, 720 g ai/ha)?
**A.** The value was 0 plant.

**Q.** And the “tolerance to the herbicide (in words)” value (genotypes PPOA-01 to PPOF-01 and PPO-EC-01, four-fold field concentration)?
**A.** The value was “high-resistant tolerance”.

**Q.** What about the “tolerance to the herbicide (in words)” value (genotypes PPOA-01 to PPOF-01 and PPO-EC-01, two-fold field concentration) of the same molecule?
**A.** The value was “high-resistant tolerance”.
